We go through eleven molecules from publication PMC6632053, “Incorporation of Putative Helix-Breaking Amino Acids in the Design of Novel Stapled Peptides: Exploring Biophysical and Cellular Permeability Properties” (Molecules, 2019).

Values joined by “and” are separate entries in the source; they are usually repeats but may differ in a detail not shown here. Equal entries are not always repeated. Where two headings read alike, the source gives them in different places. Bridge positions count the residues as written; N and C are the ends. Square brackets hold non-standard residues; d marks the D form. Peptide text beside a SMILES is read from it. Lys(N3) = [N-]=[N+]=NCCCC[C@H](N)C(=O)O; R8 = C=CCCCCCC[C@@](C)(N)C(=O)O; Cba = N[C@@H](CC1CCC1)C(=O)O; S5 = C=CCCC[C@](C)(N)C(=O)O; βAla = NCCC(=O)O

In one data set the target is T1, human Mdm2 1–125 (Homo sapiens, UniProt Q00987).
T1 construct: GST (N); His6 (internal); TEV cleavage site ENLYFQG (internal); made in house; host or cells: Escherichia coli BL21 (DE3) Rosetta T1R
The data set can be described thus: Mdm2 binding assay (competitive fluorescence anisotropy/polarization).

Data set [1] deals with p53 responsive β-lactamase reporter in HCT116 cells. The data set can be described thus: p53 beta-lactamase reporter gene cellular functional assay. The class given is cell-based. The note with it: p53 reporter assay, HCT116, read-out: Cellular (µM), cellular activity (EC50). The method in brief:
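HCT116 cells stably carrying a p53-responsive β-lactamase reporter seeded 8000/well overnight, then switched to Opti-MEM with 0% or 10% FBS for compound treatment at 0.5% DMSO final. β-Lactamase activity measured with ToxBLAzer Dual Screen on a multiplate reader.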

Data set [2] is described as follows: Circular dichroism (CD) α-helicity. The class given is physicochemical. The note with it: for Helicity (%): CD of free peptide, 25 °C, 1 mM Hepes pH 7.4, 5% methanol. The method in brief: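 Peptide dried from methanol, reconstituted to 1 mM in 1 mM Hepes pH 7.4 with 5% methanol; concentration by A280. CD spectra 300–190 nm, 0.2 cm path, 25 °C, duplicates; converted to mean residue ellipticity and deconvoluted for secondary structure.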

Data set [3] is described as follows: Whole cell homogenate stability. The format is in vitro ADME. The note with it: 1 μM peptide, 37 °C, up to 22 h. The method, then: Peptides at a concentration of 1 μM were incubated at 37 °C with HCT116 whole cell homogenates prepared from 1 million lysed cells/mL. The reaction was stopped at 0, 1, 2, 4, and 22 h with an organic solvent followed by centrifugation. The resulting supernatant was injected into LC/MS for detection of the tested peptide. The remaining percentage of each compound was normalized to the 0 h amount and reported. As a positive control, we used the ONEG peptide with the sequence […] [28].

Where [4] appears, read: Table 1, competitive fluorescence polarization, read-out: Mdm2 (nM), Mdm2 binding (Kd).
The mark [5] stands for this setting: Table 2, competitive fluorescence polarization, read-out: Mdm2 (nM), Mdm2 binding (Kd).

T1 sequence (Q00987 with tags, fused parts or gaps): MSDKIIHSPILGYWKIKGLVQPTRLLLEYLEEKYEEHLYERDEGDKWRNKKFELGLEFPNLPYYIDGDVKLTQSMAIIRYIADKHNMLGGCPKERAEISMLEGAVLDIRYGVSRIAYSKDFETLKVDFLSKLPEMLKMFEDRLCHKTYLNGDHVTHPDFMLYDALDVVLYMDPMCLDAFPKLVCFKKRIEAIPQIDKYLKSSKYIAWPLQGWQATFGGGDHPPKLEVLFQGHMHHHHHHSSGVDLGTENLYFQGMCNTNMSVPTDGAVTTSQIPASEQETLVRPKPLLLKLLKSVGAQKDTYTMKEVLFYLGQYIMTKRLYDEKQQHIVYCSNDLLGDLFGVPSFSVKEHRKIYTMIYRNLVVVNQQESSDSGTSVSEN

With `CC(=O)N[C@@H](CC(C)C)C(=O)N[C@H](C(=O)N[C@@H](Cc1ccccc1)C(=O)NC(C)(C)C(=O)N[C@H](CCC(=O)O)C(=O)N[C@@H](Cc1ccc(O)cc1)C(=O)N[C@@H](Cc1c[nH]c2ccccc12)C(=O)N[C@@H](CCC(N)=O)C(=O)N[C@@H](CC(C)C)C(=O)N[C@@H](CC1CCC1)C(=O)NC(C)(C)C(=O)N[C@@H](CO)C(=O)N[C@@H](C)C(=O)N[C@@H](C)C(N)=O)[C@@H](C)O` [Linear E5(D-Glu)], at human Mdm2 1–125 (setting [4]), the Kd is 135 nM. Moreover, in data set [1] (Table 1), the EC50 is > 50 µM. Besides, the “Helicity (%)” value in data set [2] (Table 1) came to 21.4%. Further, in data set [3], the “stability in whole cell homogenate” value is “decreased stability”.
For `CC(=O)N[C@@H](CC(C)C)C(=O)N[C@H](C(=O)N[C@@H](Cc1ccccc1)C(=O)NC(C)(C)C(=O)N[C@@H](CCC(=O)O)C(=O)N[C@@H](Cc1ccc(O)cc1)C(=O)N[C@@H](Cc1c[nH]c2ccccc12)C(=O)N[C@@H](CCC(N)=O)C(=O)N[C@@H](CC(C)C)C(=O)N[C@@H](CC1CCC1)C(=O)NC(C)(C)C(=O)N[C@@H](CO)C(=O)N[C@@H](C)C(=O)N[C@@H](C)C(N)=O)[C@@H](C)O` [Linear Parent (MP-189), Ac–Leu–Thr–Phe–Aib–Glu–Tyr–Trp–Gln–Leu–Cba–Aib–Ser–Ala–Ala–NH2] the same measures were 43.1 nM, 33.5 µM, 35.3% and “moderate stabilities”.
As to `CC(=O)N[C@@H](CCCCN=[N+]=[N-])C(=O)NCCC(=O)N[C@@H](CC(C)C)C(=O)N[C@H](C(=O)N[C@@H](Cc1ccccc1)C(=O)N[C@]1(C)CCCCCCC=CCCC[C@@](C)(C(=O)N[C@@H](CO)C(=O)N(C)[C@@H](C)C(=O)N[C@@H](C)C(N)=O)NC(=O)[C@H](CC2CCC2)NC(=O)[C@H](CCC(N)=O)NC(=O)[C@H](C)NC(=O)[C@H](Cc2c[nH]c3ccccc23)NC(=O)[C@H](Cc2ccc(O)cc2)NC(=O)[C@H](CCC(=O)O)NC1=O)[C@@H](C)O` [A13(N-methyl L-Ala)], the Kd at human Mdm2 1–125 (setting [5]) was found to be 10 nM. Besides, in data set [1] (Table 2), the EC50 came out at 1.6 µM. For the same molecule, in data set [2] (Table 2), the “Helicity (%)” value came out at 38.6%.
Regarding `CC(=O)N[C@@H](CC(C)C)C(=O)N[C@@H](C)C(=O)N[C@@H](Cc1ccccc1)C(=O)N[C@]1(C)CCCCCCC=CCCC[C@@](C)(C(=O)N[C@@H](CO)C(=O)N[C@@H](C)C(=O)N[C@@H](C)C(N)=O)NC(=O)[C@H](CC2CCC2)NC(=O)[C@H](CC(C)C)NC(=O)[C@H](CCC(N)=O)NC(=O)[C@H](Cc2c[nH]c3ccccc23)NC(=O)[C@H](Cc2ccc(O)cc2)NC(=O)[C@H](CCC(=O)O)NC1=O` [Peptide T2A] (Ac-LAF[R8]EYWQL[Cba][S5]SAA-NH2; staple 4-11), the Kd on human Mdm2 1–125 (setting [4]) turned out to be 21.3 nM. Moreover, the EC50 in data set [1] (Table 1) amounted to 1 µM. Further, the “Helicity (%)” value in data set [2] (Table 1) is 36.2%.
For the molecule `CC(=O)N[C@@H](CCCCN=[N+]=[N-])C(=O)NCCC(=O)N[C@@H](CC(C)C)C(=O)N[C@H](C(=O)N[C@@H](Cc1ccccc1)C(=O)N[C@]1(C)CCCCCCC=CCCC[C@@](C)(C(=O)N[C@@H](CO)C(=O)N[C@@H](C)C(=O)N[C@@H](C)C(N)=O)NC(=O)[C@H](CC2CCC2)NC(=O)[C@H](CCC(N)=O)N(C)C(=O)[C@H](C)NC(=O)[C@H](Cc2c[nH]c3ccccc23)NC(=O)[C@H](Cc2ccc(O)cc2)NC(=O)[C@H](CCC(=O)O)NC1=O)[C@@H](C)O` [Q9(N-methyl L-Gln)], the Kd at human Mdm2 1–125 (setting [5]) was 211 nM. Further, the EC50 in data set [1] (Table 2) was > 50 µM. Also, in data set [2], the “α-helicity by CD” value was < 30%. Further, in data set [2] (Table 2), the “Helicity (%)” value is on record as 20.2%.
Turning to `CC(=O)N[C@@H](CCCCN=[N+]=[N-])C(=O)NCCC(=O)N[C@@H](CC(C)C)C(=O)N[C@H](C(=O)N[C@@H](Cc1ccccc1)C(=O)N[C@]1(C)CCCCCCC=CCCC[C@@](C)(C(=O)N[C@@H](CO)C(=O)N[C@@H](C)C(=O)N[C@@H](C)C(N)=O)NC(=O)[C@H](CC2CCC2)NC(=O)[C@@H]2CCCN2C(=O)[C@H](C)NC(=O)[C@H](Cc2c[nH]c3ccccc23)NC(=O)[C@H](Cc2ccc(O)cc2)NC(=O)[C@H](CCC(=O)O)NC1=O)[C@@H](C)O` [Peptide Q9P], at human Mdm2 1–125 (setting [5]), the Kd was 77.1 nM. Also, in data set [1] (Table 2), the EC50 amounted to 3.1 µM. Also, the “Helicity (%)” value in data set [2] (Table 2) was 27.4%. Also, in data set [2] (listed as Pro^9), the “α-helicity by CD” value was < 30% and 27.4%.
The molecule `CC(=O)N[C@@H](CCCCN=[N+]=[N-])C(=O)NCCC(=O)N[C@@H](CC(C)C)C(=O)N[C@H](C(=O)N[C@@H](Cc1ccccc1)C(=O)N[C@]1(C)CCCCCCC=CCCC[C@@](C)(C(=O)NCC(=O)N[C@@H](C)C(=O)N[C@@H](C)C(N)=O)NC(=O)[C@H](CC2CCC2)NC(=O)[C@H](CCC(N)=O)NC(=O)[C@H](C)NC(=O)[C@H](Cc2c[nH]c3ccccc23)NC(=O)[C@H](Cc2ccc(O)cc2)NC(=O)[C@H](CCC(=O)O)NC1=O)[C@@H](C)O` [Peptide S12G] showed a dissociation constant (Kd) on human Mdm2 1–125 of 18.9 nM. The EC50 in data set [1] (Table 2) stood at 0.65 µM. Also, the “Helicity (%)” value in data set [2] (Table 2) was found to be 46.5%.
With `CC(=O)N[C@@H](CC(C)C)C(=O)N[C@H](C(=O)N[C@@H](Cc1ccccc1)C(=O)N[C@]1(C)CCCCCCC=CCCC[C@@](C)(C(=O)N[C@@H](CO)C(=O)N[C@@H](C)C(=O)N[C@@H](C)C(N)=O)NC(=O)[C@H](CC2CCC2)NC(=O)[C@H](CC(C)C)NC(=O)[C@H](CCC(N)=O)NC(=O)[C@H](Cc2c[nH]c3ccccc23)NC(=O)[C@H](Cc2ccc(O)cc2)NC(=O)[C@H](C)NC1=O)[C@@H](C)O` [Peptide E5A] (Ac-LTF[R8]AYWQL[Cba][S5]SAA-NH2; staple 4-11), at human Mdm2 1–125 (setting [4]), the Kd came out at 29.8 nM. In data set [1] (Table 1), the concentration for a half-maximal effect (EC50) came out at 0.18 µM. Further, in data set [2] (Table 1), the “Helicity (%)” value was 27.6%.
Take `CC(=O)N[C@@H](CC(C)C)C(=O)N[C@H](C(=O)N[C@@H](Cc1ccccc1)C(=O)N[C@]1(C)CCCCCCC=CCCC[C@@](C)(C(=O)N[C@@H](CO)C(=O)N[C@@H](C)C(=O)N[C@@H](C)C(N)=O)NC(=O)[C@H](CC2CCC2)NC(=O)[C@H](CC(C)C)NC(=O)[C@H](C)NC(=O)[C@H](Cc2c[nH]c3ccccc23)NC(=O)[C@H](Cc2ccc(O)cc2)NC(=O)[C@H](CCC(=O)O)NC1=O)[C@@H](C)O` [Peptide Q8A]: the Kd on human Mdm2 1–125 (setting [4]) turned out to be 26.5 nM. The EC50 in data set [1] (Table 1) worked out at 0.1 µM. In data set [2] (Table 1), the “Helicity (%)” value turned out to be 33.4%.
Turning to `CC(=O)N[C@@H](CCCCN=[N+]=[N-])C(=O)NCCC(=O)N1CCC[C@H]1C(=O)N[C@H](C(=O)N[C@@H](Cc1ccccc1)C(=O)N[C@]1(C)CCCCCCC=CCCC[C@@](C)(C(=O)N[C@@H](CO)C(=O)N[C@@H](C)C(=O)N[C@@H](C)C(N)=O)NC(=O)[C@H](CC2CCC2)NC(=O)[C@H](CCC(N)=O)NC(=O)[C@H](C)NC(=O)[C@H](Cc2c[nH]c3ccccc23)NC(=O)[C@H](Cc2ccc(O)cc2)NC(=O)[C@H](CCC(=O)O)NC1=O)[C@@H](C)O` [Peptide L1P], the Kd at human Mdm2 1–125 (setting [5]) was found to be 21.9 nM. Further, the EC50 in data set [1] (Table 2) came out at 0.75 µM. Moreover, the “Helicity (%)” value in data set [2] (Table 2) was found to be 41.6%.
Consider `CC(=O)N[C@@H](CCCCN=[N+]=[N-])C(=O)NCCC(=O)NCC(=O)N[C@H](C(=O)N[C@@H](Cc1ccccc1)C(=O)N[C@]1(C)CCCCCCC=CCCC[C@@](C)(C(=O)N[C@@H](CO)C(=O)N[C@@H](C)C(=O)N[C@@H](C)C(N)=O)NC(=O)[C@H](CC2CCC2)NC(=O)[C@H](CCC(N)=O)NC(=O)CNC(=O)[C@H](Cc2c[nH]c3ccccc23)NC(=O)[C@H](Cc2ccc(O)cc2)NC(=O)CNC1=O)[C@@H](C)O` [L1G, E5G, A8G] (Ac-[Lys(N3)][βAla]GTF[R8]GYWGQ[Cba][S5]SAA-NH2; staple 6-13), for which the Kd on human Mdm2 1–125 (setting [5]) is 49.8 nM. The EC50 in data set [1] (Table 2) came out at 1.7 µM. Also, in data set [2], the “α-helicity by CD” value turned out to be 20.4%. Further, in data set [2] (Table 2), the “Helicity (%)” value amounted to 20.4%.
